Legend:
Trichinella spiralis = Trichinella spiralis in vitro; format: cell-based; details: Trichina larvae from mouse muscle, incubation 5 days at 19° C.; tested at 100, 10 and 1 μm/ml
Protocol: Trichinella spiralis in vitro
(§1) Trichina lavae are isolated from mice's muscle and washed in 0.9% NaCl supplemented with 20 μg/ml sisomycin and 2 μg/ml clotrimazole. The actual incubation of approximately 20 trichinae per measurement is carried out in 2 ml of a solution composed of 10 g of Bacto Casitone, 5 g of yeast (yeast extract), 2.5 g of glucose, 0.4 g of KH2 PO4 and 0.4 g of K2 HPO4 per 500 ml, pH 7.2, containing 10 μm/ml of sisomycin and 1 μm/ml of clotrimazole. 10 mg of the substance to be tested are dissolved in 0.5 ml of DMSO, and such an amount is added to the incubation medium that the end concentration is 100, 10 and 1 μm/ml. The experiment is evaluated after incubation for 5 days at 19° C.

Heterakis spumose = Heterakis spumose in vitro test (mobility and egg excretion); format: cell-based; details: 10 female nematodes, incubation 3 days at 37° C.
Protocol: as §1
Female Heterakis spumose nematodes are isolated from the colon and caecum of mice. 10 females are incubated for 3 days at 37° C. in 1.5 ml of medium used for the Trichinella spiarlis in-vitro test. The addition of test substances is likewise carried out as described for the trichina test. To test the anthelmintic activity, mobility and egg excretion are assessed in comparison with the control. Enniatins A1, B and B1 are active at a concentration of 10 μM/ml.

Haemonchus contortus = test: In vivo nematode test Haemonchus contortus/sheep; details: experimentally infected sheep, oral and/or intravenous; egg excretion stopped completely after treatment
Protocol: Haemonchus contortus/sheep
Shaft which have been infected experimentally with Haemonchus contortus were treated after the prepatent time of the parasite had elapsed. The active compounds were applied orally and/or intravenously in the form of the pure active compound.
The degree of effectiveness is determined by quantitatively counting the worm eggs excreted with the faeces before and after the treatment.
If the egg excretion has stopped completely after the treatment, this means that the worms were aborted or are damaged to such an extent that they no longer produce eggs (dosis effectiva).
Active compounds tested and effective dosage rates (dosis effectiva) can be seen from the table which follows: […]

Row | Structure (SMILES) | effective concentration (Trichinella spiralis) | active concentration (mobility and egg excretion compared with control) (Heterakis spumose) | Dosis effectiva (Haemonchus contortus)
1 | CC[C@H](C)[C@H]1C(=O)O[C@H](C(C)C)C(=O)N(C)[C@@H]([C@@H](C)CC)C(=O)O[C@H](C(C)C)C(=O)N(C)[C@@H](C(C)C)C(=O)O[C@H](C(C)C)C(=O)N1C [Enniatin A1, enniatin A1] | 100 μm/ml | 10 μM/ml | –
2 | CC[C@H](C)[C@H]1C(=O)O[C@H](C(C)C)C(=O)N(C)[C@@H](C(C)C)C(=O)O[C@H](C(C)C)C(=O)N(C)[C@@H](C(C)C)C(=O)O[C@H](C(C)C)C(=O)N1C [Enniatin B1, enniatin B1] | 100 μm/ml | 10 μM/ml | –
3 | CC(C)[C@H]1C(=O)O[C@H](C(C)C)C(=O)N(C)[C@@H](C(C)C)C(=O)O[C@H](C(C)C)C(=O)N(C)[C@@H](C(C)C)C(=O)O[C@H](C(C)C)C(=O)N1C [Enniatin B, enniatin B] | 100 μm/ml | 10 μM/ml | –
4 | CC[C@H](C)[C@H]1C(=O)O[C@H](C)C(=O)N(C)[C@@H]([C@@H](C)CC)C(=O)O[C@H](C)C(=O)N(C)[C@@H]([C@@H](C)CC)C(=O)O[C@H](C)C(=O)N1C [Example 1, Cyclo(N-methyl-L-isoleucyl-D-lactyl-N-methyl-L-isoleucyl-D-lactyl-N-methyl- L-isoleucyl-D-lactyl-)] | – | – | 5 mg/kg

Reference: patent US5821222A, “Cyclic depsipeptides having 18 ring atoms for combating endoparasites” (Bayer Aktiengesellschaft, priority 1992, dated 1998)
